The source of these data is patent US20260250318A1, “COMPOSITIONS AND METHODS FOR CROSSING THE BLOOD BRAIN BARRIER” (VOYAGER THERAPEUTICS, INC., priority 2022, published 2026).

In assay [1] the test system is brains, heart, liver, muscle, and DRG of the NHPs. Kind of assay: Maturation of TTM-001 and TTM-002 capsids, NGS enrichment in NHP tissues. The assay is classed as in vivo. The settings on record: relative to AAV9 control. The procedure, abridged: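 Variants carry mutations within and flanking the loop IV peptide insert: positions 450–466 were triplet-randomized, while positions 449–466 received low-frequency point mutations. The combined pool went into two NHPs, and each peptide was scored by NGS enrichment ratio against AAV9.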

Assay [2] has as its system brain. Kind of assay: Matured TTM-001 and TTM-002 variants, NGS enrichment in mouse brain. The settings on record: relative to AAV9 control. It is filed as in vivo, mice.
Where [3] appears, read: NGS fold-enrichment, DRG of NHPs.
Where [4] appears, read: NGS fold-enrichment, RNA, brain of NHPs.
[5] abbreviates: NGS fold-enrichment, heart of NHPs.
[6] abbreviates: NGS fold-enrichment, liver DNA of NHPs.
Setting [7] is: NGS fold-enrichment, liver RNA of NHPs.
The mark [8] stands for this setting: NGS fold-enrichment, muscle of NHPs.
Where [9] appears, read: NGS fold-enrichment, brain of mice.
The mark [10] stands for this setting: NGS fold-enrichment of matured AAV capsid variants, NHP brain, RNA.
[11] abbreviates: NGS fold-enrichment of RNA, NHP brain.
[12] abbreviates: NGS fold-enrichment, NHP liver DNA.
Setting [13] is: NGS fold-enrichment, NHP liver RNA.
Setting [14] is: NGS fold-enrichment, NHP muscle.
The mark [15] stands for this setting: NGS fold-enrichment, mouse brain.

Consider KTEARSGSPHSKAQNQQT, for which the “Fold Enrichment relative to AAV9, DRG (NHP)” value in assay [1] (setting [3]) was 0.000 fold. The “Fold Enrichment relative to AAV9, Brain (NHP)” value in assay [1] (setting [4]) worked out at 73.349 fold. For the same sequence, the “Fold Enrichment relative to AAV9, Heart (NHP)” value in assay [1] (setting [5]) is on record as 0.000 fold. Besides, in assay [1] (setting [6]), the “Fold Enrichment relative to AAV9, Liver DNA (NHP)” value stood at 0.118 fold. For the same sequence, the “Fold Enrichment relative to AAV9, Liver RNA (NHP)” value in assay [1] (setting [7]) turned out to be 0.695 fold. Also, in assay [1] (setting [8]), the “Fold Enrichment relative to AAV9, Muscle (NHP)” value turned out to be 0.000 fold. Further, in assay [2] (setting [9]), the “Fold Enrichment relative to AAV9, Brain (Mouse)” value is given as 62.903 fold.
For KTSNGSGSPHSKAQNYQT, the “Fold Enrichment relative to AAV9, Brain (NHP)” value in assay [1] (setting [10]) is reported as 57.894 fold. For the same sequence, in assay [1] (NHP DRG), the “Fold Enrichment relative to AAV9, DRG (NHP)” value was found to be 0.000 fold. Also, the “Fold Enrichment relative to AAV9, Heart (NHP)” value in assay [1] (NHP heart) came to 0.082 fold. Also, the “Fold Enrichment relative to AAV9, Liver DNA (NHP)” value in assay [1] (NHP liver, DNA) was 0.110 fold. The “Fold Enrichment relative to AAV9, Liver RNA (NHP)” value in assay [1] (NHP liver, RNA) is reported as 0.000 fold. In addition, the “Fold Enrichment relative to AAV9, Muscle (NHP)” value in assay [1] (NHP muscle) was determined as 0.000 fold. Further, in assay [2] (mouse brain), the “Fold Enrichment relative to AAV9, Brain (Mouse)” value was 63.681 fold.
Take KTESWSGSPHSKAQNQQT: the “Fold Enrichment relative to AAV9, DRG (NHP)” value in assay [1] (setting [3]) came out at 0.000 fold. Moreover, in assay [1] (setting [4]), the “Fold Enrichment relative to AAV9, Brain (NHP)” value was determined as 69.144 fold. Also, the “Fold Enrichment relative to AAV9, Heart (NHP)” value in assay [1] (setting [5]) was found to be 0.000 fold. Also, the “Fold Enrichment relative to AAV9, Liver DNA (NHP)” value in assay [1] (setting [6]) was 0.019 fold. The “Fold Enrichment relative to AAV9, Liver RNA (NHP)” value in assay [1] (setting [7]) was found to be 0.000 fold. Also, the “Fold Enrichment relative to AAV9, Muscle (NHP)” value in assay [1] (setting [8]) stood at 0.000 fold. Also, in assay [2] (setting [9]), the “Fold Enrichment relative to AAV9, Brain (Mouse)” value was 67.699 fold.
Consider KTEHVSGSPHSKAQNQQT, for which, in assay [1] (setting [10]), the “Fold Enrichment relative to AAV9, Brain (NHP)” value worked out at 58.228 fold. Moreover, the “Fold Enrichment relative to AAV9, DRG (NHP)” value in assay [1] (NHP DRG) amounted to 0.000 fold. The “Fold Enrichment relative to AAV9, Heart (NHP)” value in assay [1] (NHP heart) is given as 0.024 fold. For the same sequence, the “Fold Enrichment relative to AAV9, Liver DNA (NHP)” value in assay [1] (NHP liver, DNA) is on record as 0.141 fold. Also, in assay [1] (NHP liver, RNA), the “Fold Enrichment relative to AAV9, Liver RNA (NHP)” value stood at 0.433 fold. Besides, the “Fold Enrichment relative to AAV9, Muscle (NHP)” value in assay [1] (NHP muscle) came out at 0.000 fold. For the same sequence, the “Fold Enrichment relative to AAV9, Brain (Mouse)” value in assay [2] (mouse brain) was determined as 71.410 fold.
Regarding KTEKISGSPHSKAQNQQT, the “Fold Enrichment relative to AAV9, Brain (NHP)” value in assay [1] (setting [11]) and in assay [1] (setting [4]) was 116.603 fold each time. In addition, the “Fold Enrichment relative to AAV9, DRG (NHP)” value in assay [1] (setting [3]) stood at 0.000 fold; in assay [1] (NGS fold-enrichment, NHP DRG), 0.000 fold. Also, the “Fold Enrichment relative to AAV9, Heart (NHP)” value worked out at 0.000 fold in assay [1] (NGS fold-enrichment, NHP heart) and 0.000 fold in assay [1] (setting [5]). Further, the “Fold Enrichment relative to AAV9, Liver DNA (NHP)” value in assay [1] (setting [12]) and in assay [1] (setting [6]) was 0.426 fold in each case. Besides, the “Fold Enrichment relative to AAV9, Liver RNA (NHP)” value in assay [1] (setting [13]) and in assay [1] (setting [7]) was 0.000 fold in each case. The “Fold Enrichment relative to AAV9, Muscle (NHP)” value in assay [1] (setting [14]) and in assay [1] (setting [8]) was 0.000 fold throughout. Also, the “Fold Enrichment relative to AAV9, Brain (Mouse)” value in assay [2] (setting [9]) and in assay [2] (setting [15]) was 102.978 fold throughout.
KESDGSGSPHSKAQNQQT: the “Fold Enrichment relative to AAV9, DRG (NHP)” value in assay [1] (setting [3]) was 0.000 fold. Further, the “Fold Enrichment relative to AAV9, Brain (NHP)” value in assay [1] (setting [4]) was 63.766 fold. For the same sequence, the “Fold Enrichment relative to AAV9, Heart (NHP)” value in assay [1] (setting [5]) is given as 0.000 fold. For the same sequence, the “Fold Enrichment relative to AAV9, Liver DNA (NHP)” value in assay [1] (setting [6]) was found to be 0.146 fold. Moreover, the “Fold Enrichment relative to AAV9, Liver RNA (NHP)” value in assay [1] (setting [7]) turned out to be 0.567 fold. Moreover, the “Fold Enrichment relative to AAV9, Muscle (NHP)” value in assay [1] (setting [8]) amounted to 0.000 fold. Also, the “Fold Enrichment relative to AAV9, Brain (Mouse)” value in assay [2] (setting [9]) turned out to be 115.231 fold.
For KTINGSGSPHSKAQVPAT, in assay [1] (setting [10]), the “Fold Enrichment relative to AAV9, Brain (NHP)” value is given as 54.475 fold. Also, in assay [1] (NHP DRG), the “Fold Enrichment relative to AAV9, DRG (NHP)” value is given as 0.000 fold. In addition, the “Fold Enrichment relative to AAV9, Heart (NHP)” value in assay [1] (NHP heart) was found to be 0.002 fold. Moreover, the “Fold Enrichment relative to AAV9, Liver DNA (NHP)” value in assay [1] (NHP liver, DNA) stood at 0.223 fold. In addition, in assay [1] (NHP liver, RNA), the “Fold Enrichment relative to AAV9, Liver RNA (NHP)” value came out at 0.782 fold. Besides, in assay [1] (NHP muscle), the “Fold Enrichment relative to AAV9, Muscle (NHP)” value came to 0.000 fold. In addition, the “Fold Enrichment relative to AAV9, Brain (Mouse)” value in assay [2] (mouse brain) was 137.743 fold.
As to KTELRHDSPHKSGQNQQT, the “Fold Enrichment relative to AAV9, Brain (NHP)” value in assay [1] (setting [11]) came out at 98.098 fold. For the same sequence, in assay [1] (NGS fold-enrichment, NHP DRG), the “Fold Enrichment relative to AAV9, DRG (NHP)” value is 0.000 fold. For the same sequence, in assay [1] (NGS fold-enrichment, NHP heart), the “Fold Enrichment relative to AAV9, Heart (NHP)” value came out at 0.019 fold. In assay [1] (setting [12]), the “Fold Enrichment relative to AAV9, Liver DNA (NHP)” value is 0.007 fold. Besides, the “Fold Enrichment relative to AAV9, Liver RNA (NHP)” value in assay [1] (setting [13]) is 0.000 fold. Also, the “Fold Enrichment relative to AAV9, Muscle (NHP)” value in assay [1] (setting [14]) came to 0.000 fold. For the same sequence, the “Fold Enrichment relative to AAV9, Brain (Mouse)” value in assay [2] (setting [15]) came out at 6.588 fold.
